Assay [1] relates to Plasma-LDL. The assay can be described thus: Stabilisation of plasma LDL: prolongation of the lag phase of Cu(II)-induced oxidation (diene formation at A 234). The class given is biochemical, human. Particulars: for Stabilisierung v. Plasma LDL: Verlängerung der "lag-Phase": 3 molecules test substance per LDL particle, LDL 125 µg protein/ml, 10 µM CuCl2, pH 8, 42° C. The method, then:
Stabilisierung von Plasma-LDL (nach Huber et al. (1990) Free Rad. Res. Comms. 8, 167-173)
LDL (125 µg Protein/ml) wurde in 20 mM Tris-Cl pH 8, 150 mM NaCl, 10 µM CuCl2 mit und ohne Testverbindung (gelöst in Äthanol, Äthanolendkonzentration 0,5 %) bei 42° C oxidiert. Es wurden jeweils 3 Moleküle Testsubstanz pro LDL-Partikel eingesetzt. Die Oxidation wurde kontinuierlich photometrisch bei A 234 durch die Messung der Dienbildung verfolgt. Die sogenannte "lag Phase" ist als dasjenige Zeitintervall definiert, das sich aus dem Schnittpunkt der Tangente der Kurve während der Propagationsreaktion der Lipidperoxidation und der Zeitachse ergibt.

Assay [2] deals with P 388 D.1 Makrophagen. As to the kind of experiment: Inhibition of cholesterol ester formation in macrophages (after Huber et al.). The class given is cell-based. Particulars: P 388 D.1 macrophages; for Hemmung der Cholesterinesterbildung in Macro- (P388D.1): 18 h incubation, F-10 medium + 1 µM Cu(II) + 50 µg/ml LDL + 5 % FCS, test concentration not given. The method, then: Hemmung der Cholesterinesterbildung in Makrophagen (nach Huber et al. (1990) Free Rad. Res. Comms. 8, 167-173)
Humanplasma-LDL wurde durch sequentielle Ultrazentrifugation bei präselekierten Dichten aus dem Plasma gesunder männlicher Nichtraucher isoliert und für 5 h bei 37° C in F-10 Medium + 1µM Cu(II) zur Depletion seiner lipophilen Antioxidantien inkubiert. Die Bildung von Cholesterinestern in P 388 D.1 Makrophagen unter Einfluß von konditioniertem human Plasma-LDL wurde nach 18 h Inkubation der Zellen (2 x 10^6/ml) in F-10 Medium + 1 µM Cu(II) + 50 µg/ml LDL + 5 % FCS nach Extraktion der Neutral fette dünnschichtchromatographisch gemessen.

For `CC(C)(C)c1cc(S(=O)(=O)NCc2ccccc2)cc(C(C)(C)C)c1O` [1b).2, (3,5-Di-^tbutyl-4-hydroxy)benzolsulfo-benzylamid], the “Stabilisierung v. Plasma LDL: Verlängerung der "lag-Phase"” value in assay [1] stood at 8. The “Hemmung der Cholesterinesterbildung in Macro- (P388D.1)” value (“Hemmung der Cholesterinesterbildung” for short) in assay [2] is listed as -73,0.
Regarding `Cc1cc(C(C)(C)C)c(O)c(S(=O)(=O)NCc2ccccc2)c1` [Beispiel 2.2, (3-^tButyl-2-hydroxy-5-methyl)benzolsulfo-benzylamid], the “Hemmung der Cholesterinesterbildung” value in assay [2] was -64.1.
Turning to `CC(C)(C)c1cc(NS(=O)(=O)c2cc(C(C)(C)C)c(O)c(C(C)(C)C)c2)cc(C(C)(C)C)c1O` [Beispiel 3.10], in assay [2], the “Hemmung der Cholesterinesterbildung” value was -77.4.
In the case of `CC(C)(C)c1cc(CNS(=O)(=O)c2cc(C(C)(C)C)c(O)c(C(C)(C)C)c2)cc(C(C)(C)C)c1O` [Beispiel 3.11], the “Stabilisierung v. Plasma LDL: Verlängerung der "lag-Phase"” value in assay [1] is 79. Besides, in assay [2], the “Hemmung der Cholesterinesterbildung” value is -66.7.
As for `CC(C)(C)c1cc(CCNS(=O)(=O)c2cc(C(C)(C)C)c(O)c(C(C)(C)C)c2)cc(C(C)(C)C)c1O` [Beispiel 3.12], the “Hemmung der Cholesterinesterbildung” value in assay [2] was -63.4.
Consider `CC(C)(C)c1cc(CCCNS(=O)(=O)c2cc(C(C)(C)C)c(O)c(C(C)(C)C)c2)cc(C(C)(C)C)c1O` [Beispiel 3.13], for which, in assay [2], the “Hemmung der Cholesterinesterbildung” value was -72.6.
As to `CC(C)(Sc1cc(C(C)(C)C)c(O)c(C(C)(C)C)c1)Sc1cc(C(C)(C)C)c(O)c(C(C)(C)C)c1` [Probucol, reference compound], the “verlängern die lag-Phase von LDL” value in assay [1] (reference substance, 3 molecules/LDL particle) was determined as 10%. For the same molecule, in assay [2] (reference substance, 10 /uM, n=7), the “Hemmung der Chol-ester-bildung” value was 25-42%.
